Assay results reported in patent US12577341B2, “Copolymer derived from substituted benzopinacol and use of the same as polymerization initiator” (BASF COATINGS GMBH, priority 2020, dated 2026).

Assays:
[1] = Dissolution of the initiator in the monomer solution (appearance of the resulted mixture); format: physicochemical
Experimental: A monomer solution was prepared by mixing 90 g of trimethylolpropane triacrylate (TMPTA) and 2 g of butyl glycol under stirring. 4 g of the copolymeric initiator system was added into the monomer solution and stirred under room temperature for 1 hour.
A monomer solution was prepared by mixing 90 g of TMPTA, 2 g of butyl glycol, 0.24 g of chloroform and 1.76 g solvent naphtha 160/180 under stirring. 1 g of benzopinacol fine powder was added into the monomer solution and stirred under room temperature for 1 hour.
A monomer solution was prepared by mixing 90 g of TMPTA and 10 g of butyl glycol under stirring. 1 g of fine benzopinacol fine powder was added into the monomer solution and stirred under room temperature for 1 hour.
A monomer solution was prepared by mixing 90 g of TMPTA and 10 g of butyl glycol by stirring. 1 g of the compound of formula (I) was added into the monomer solution and stirred under room temperature for 1 hour.

[2] = cited from earlier work
[3] = 1 g in 90 g TMPTA and 10 g butyl glycol, stirred at room temperature for 1 hour

| SMILES | Appearance of resulted mixture [1, 3] | Appearance of resulted mixture ([1]; 1 g fine powder in 90 g TMPTA, 2 g butyl glycol, 0.24 g chloroform and 1.76 g solvent naphtha 160/180, stirred at room temperature for 1 hour) | Solubility in common organic solvents [2] |
| --- | --- | --- | --- |
| C=CCOC(=O)c1ccc(C(O)(c2ccccc2)C(O)(c2ccccc2)c2ccc(C(=O)OCC=C)cc2)cc1 (stereo not shown) [compound of formula (I), allyloxycarbonyl substituted benzopinacol of formula (I)] | transparent liquid with suspended fine particles |  |  |
| OC(c1ccccc1)(c1ccccc1)C(O)(c1ccccc1)c1ccccc1 [benzopinacol, 1,1,2,2-tetraphenyl-1,2-ethanediol] | transparent liquid with suspended fine particles | transparent liquid with suspended fine particles | very poor solubility |
